# Molecular target: T1, human CCR6 (Homo sapiens, UniProt P51684)
# T1 construct: expressed in transfected cells; host or cells: HEK-293
# T1 sequence (P51684 1-374): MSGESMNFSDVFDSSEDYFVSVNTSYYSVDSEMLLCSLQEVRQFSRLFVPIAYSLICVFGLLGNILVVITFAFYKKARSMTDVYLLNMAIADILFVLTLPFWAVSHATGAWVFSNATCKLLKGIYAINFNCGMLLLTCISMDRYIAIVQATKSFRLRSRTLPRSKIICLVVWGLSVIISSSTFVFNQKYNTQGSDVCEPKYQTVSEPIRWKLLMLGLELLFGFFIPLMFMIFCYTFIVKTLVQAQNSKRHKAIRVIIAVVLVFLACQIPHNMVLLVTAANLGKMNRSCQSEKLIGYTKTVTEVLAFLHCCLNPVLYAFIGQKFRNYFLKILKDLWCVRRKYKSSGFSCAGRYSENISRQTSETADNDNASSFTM
# Experiment: FLIPR assay (inhibition of CCL20-induced calcium signal)
# Type: cell-based
# Details: HEK-293 cells expressing human CCR6; mean values where determined several times; read-out: FLIPR IC50
# In short: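 Dye-loaded HEK-293 cells expressing human CCR6 were preincubated with compound for 30 min at room temperature in the dark, then challenged with 10 nM CCL20 (final). Fluorescence was tracked on FLIPR, and baseline-subtracted peak emission over base after agonist addition gave inhibition dose-response curves for IC50.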
row,IC50,Compound
1,119 nM,CC(=O)N1CCN(c2noc(-c3cncc([C@@](O)(c4ccc(C(C)C)cc4)C4(C)CN(C)C4)c3)n2)CC1 [Example 522]
2,627 nM,Cc1cc(C(O)CCc2cncc([C@@](O)(c3ccc(C(C)C)cc3)C3(C)CN(C)C3)c2)nn1C (some centres unmarked) [Example 76]
3,71.1 nM,"CC(C)c1ccc([C@](O)(c2cncc(-c3nc(N4CCOCC4)no3)c2)C2(C)CN(C)C2)cc1 [Example 94, (R)-(1,3-Dimethyl-azetidin-3-yl)-(4-isopropyl-phenyl)-[5-(3-morpholin-4-yl-[1,2,4]oxadiazol-5-yl)-pyridin-3-yl]-methanol]"
4,44.3 nM,CC(C)c1ccc([C@](O)(c2cncc(N3CC[C@@](C)(CO)C3)c2)C2(C)CN(C)C2)cc1 [Example 282]
5,65.2 nM,"CCC1(O)CCC(c2cncc([C@@](O)(c3ccc(C(C)C)cc3)C3(C)CN(C)C3)c2)C1 (stereo partly drawn) [Example 298, 3-{5-[(R)-(1,3-Dimethyl-azetidin-3-yl)-hydroxy-(4-isopropyl-phenyl)-methyl]-pyridin-3-yl}-1-ethyl-cyclopentanol]"
6,246 nM,CC(C)c1ccc([C@](O)(c2cccnc2)C2(C)CN(C)C2)cc1 [Example 293]
7,111 nM,CC(C)c1ccc([C@](O)(c2cncc(-c3nc(C(C)(C)O)no3)c2)C2(C)CN(C)C2)cc1 [Example 99]
8,240 nM,CC(C)c1ccc([C@](O)(c2cncc(-c3noc(C(C)(O)CO)n3)c2)C2(C)CN(C)C2)cc1 (some centres unmarked) [Example 494]
9,487 nM,CC(C)c1ccc([C@](O)(c2cncc(N3CC(C4CCOCC4)OC3=O)c2)C2(C)CN(C)C2)cc1 (some centres unmarked) [Example 199]
10,459 nM,CC(C)c1ccc([C@](O)(c2cncc(N3CC4(CCOCC4)CC3=O)c2)C2(C)CN(C)C2)cc1 [Example 213]
11,350 nM,COCCC1CC(=O)N(c2cncc([C@@](O)(c3ccc(C(C)C)cc3)C3(C)CN(C)C3)c2)C1 (some centres unmarked) [Example 221]
12,107 nM,"CC(C)c1ccc([C@](O)(c2cncc(OC3CCC(=O)CC3)c2)C2(C)CN(C)C2)cc1 [Example 424, 4-{5-[(R)-(1,3-Dimethyl-azetidin-3-yl)-hydroxy-(4-isopropyl-phenyl)-methyl]-pyridin-3-yloxy}-cyclohexanone]"
13,46.3 nM,CC(C)c1ccc([C@](O)(c2cncc(CCC3(O)CCCC3)c2)C2(C)CN(C)C2)cc1 [Example 53]
14,44.9 nM,CC(C)c1ccc([C@](O)(c2cncc(C#CC3(O)CC3)c2)C2(C)CN(C)C2)cc1 [Example 19]
15,200 nM,CC(C)c1ccc([C@](O)(c2cncc(CC[C@@H](C)O)c2)C2(C)CN(C)C2)cc1 [Example 52]
16,100 nM,"COCCCc1cncc(C(O)(c2ccc(C(C)C)cc2)C2(C)CN(C)C2)c1 (centres unmarked) [Example 48, (1,3-Dimethyl-azetidin-3-yl)-(4-isopropyl-phenyl)-[5-(3-methoxy-propyl)-pyridin-3-yl]-methanol]"
17,222 nM,CC(C)Oc1ccc(C(O)(c2cncc(N3CCCC3)c2)C2(C)CN(C)C2)cc1 (centres unmarked) [Example 158]

# The next lines start with the compound.
row,Compound,IC50
1,"CN1CC(C#N)(C(O)(c2ccc(OC(F)(F)F)cc2)c2cncc(N3CCCC3)c2)C1 (centres unmarked) [Example 2, 3-[Hydroxy-(5-pyrrolidin-1-yl-pyridin-3-yl)-(4-trifluoromethoxy-phenyl)-methyl]-1-methyl-azetidine-3-carbonitrile]",147 nM
2,CC(=O)NC(C)(C)c1nc(-c2cncc([C@@](O)(c3ccc(C(C)C)cc3)C3(C)CN(C)C3)c2)no1 [Example 350],242 nM
3,COc1ccccc1C(C)(O)CCc1cncc([C@@](O)(c2ccc(C(C)C)cc2)C2(C)CN(C)C2)c1 (some centres unmarked) [Example 69],16.1 nM
4,CC(C)c1ccc([C@](O)(c2cncc(-c3noc(C4CCN(C(=O)CO)CC4)n3)c2)C2(C)CN(C)C2)cc1 [Example 142],274 nM
5,CC(C)c1ccc([C@](O)(c2cnnc(Oc3ccc(CCO)cc3)c2)C2(C)CN(C)C2)cc1 [Example 395],60.1 nM
6,CC(C)c1ccc([C@](O)(c2cncc(-c3noc(CC(C)(C)NC(=O)C4CCOCC4)n3)c2)C2(C)CN(C)C2)cc1 [Example 466],143 nM
7,CC(C)c1ccc([C@](O)(c2cncc(C#CC(C)(O)c3ccccc3)c2)C2(C)CN(C)C2)cc1 (some centres unmarked) [Example 25],7.69 nM
8,CC(=O)N1CC[C@H](c2nc(-c3cncc([C@@](O)(c4ccc(C(C)C)cc4)C4(C)CN(C)C4)c3)no2)C1 [Example 348],135 nM
9,"CC(C)c1ccc([C@](O)(c2ccnc(CCC(C)(C)O)c2)C2(C)CN(C)C2)cc1 [Example 165, 4-{4-[(S)-(1,3-Dimethyl-azetidin-3-yl)-hydroxy-(4-isopropyl-phenyl)-methyl]-pyridin-2-yl}-2-methyl-butan-2-ol]",677 nM
10,CN1CC(C)([C@](O)(c2ccc(C(F)(C(F)(F)F)C(F)(F)F)cc2)c2cncc(-c3noc(C(C)(C)O)n3)c2)C1 [Example 537],152 nM
11,CN1CC(C)([C@@](O)(c2cncc(-c3noc(C(C)(C)O)n3)c2)c2ccc3ccccc3c2)C1 [Example 533],1020 nM
12,CC(C)c1ccc([C@](O)(c2cncc(-c3noc(CN4CC(=O)N(C)C4=O)n3)c2)C2(C)CN(C)C2)cc1 [Example 488],382 nM
13,CN1CC(C)(C(O)(c2ccc(OC3CC3)cc2)c2cncc(N3CCCC3)c2)C1 (centres unmarked) [Example 161],202 nM
14,Cc1nccc(C(C)(O)CCc2cncc([C@@](O)(c3ccc(C(C)C)cc3)C3(C)CN(C)C3)c2)n1 (some centres unmarked) [Example 645],110 nM
15,CC(C)c1ccc([C@](O)(c2cncc(-c3noc(C4CCN(Cc5ccccc5)C4=O)n3)c2)C2(C)CN(C)C2)cc1 (some centres unmarked) [Example 351],27.6 nM
16,CN1CC(C)(C(O)(c2ccc(OC(F)(F)F)cc2)c2cnc(Oc3ccccc3)nc2)C1 (centres unmarked) [Example 263],162 nM
17,[2H]C([2H])([2H])C(=O)N1CCC(c2nc(-c3cncc([C@@](O)(c4ccc(C(C)C)cc4)C4(C)CN(C)C4)c3)no2)CC1 [Example 143],188 nM
18,CC(=O)N1CCC(c2noc(-c3cncc([C@@](O)(c4ccc(C(C)C)cc4)C4(C)CN(C)C4)c3)n2)CC1 [Example 342],154 nM
19,CCCc1ccc([C@](O)(c2cncc(-c3noc(C4CCN(C(C)=O)CC4)n3)c2)C2(C)CN(C)C2)cc1 [Example 577],66.1 nM
20,"Cc1cccc(C(C)(O)C#Cc2cncc([C@@](O)(c3ccc(C(C)C)cc3)C3(C)CN(C4CC4)C3)c2)n1 (stereo partly drawn) [Example 670, 4-{5-[(R)-(1-Cyclopropyl-3-methyl-azetidin-3-yl)-hydroxy-(4-isopropyl-phenyl)-methyl]-pyridin-3-yl}-2-(6-methyl-pyridin-2-yl)-but-3-yn-2-ol]",42.8 nM
21,"CC(C)c1ccc([C@](O)(c2cncc(C#Cc3cc4ccccc4[nH]3)c2)C2(C)CN(C)C2)cc1 [Example 47, (R)-(1,3-Dimethyl-azetidin-3-yl)-[5-(1H-indol-2-ylethynyl)-pyridin-3-yl]-(4-isopropyl-phenyl)-methanol]",35 nM
22,CN1CC(C)([C@](O)(c2ccc(C3CC3)cc2)c2cncc(-c3nc(C45CC(CO)(C4)C5)no3)c2)C1 [Example 96],130 nM
23,"CCN1CC(C)([C@](O)(c2ccc(OC(F)(F)F)cc2)c2cncc(N3CCCC3)c2)C1 [Example 3, (R)-(1-Ethyl-3-methyl-azetidin-3-yl)-(5-pyrrolidin-1-yl-pyridin-3-yl)-(4-trifluoromethoxy-phenyl)-methanol]",28 nM
24,CC(=O)N1CCC(C(C)(O)C#Cc2cncc([C@@](O)(c3ccc(C(C)C)cc3)C3(C)CN(C)C3)c2)CC1 (some centres unmarked) [Example 598],94.8 nM
